This passage reports GI50 and TGI results from PubChem BioAssay (NCI).

Common to all, as to test: NCI-60 cell line screen, 48 h
Test [1] has as its system U251 CNS.
Test [2] deals with HCT-116 colon.
The test system of test [3] is IGROV1 ovarian.
Test [4] deals with SF-268 CNS.
Test [5] has as its system MOLT-4 leukemia.
The subject of test [6] is BT-549 breast.
For test [7], the system named is NCI-H522 lung.
In test [8] the test system is UACC-62 melanoma.
For test [9], the system named is NCI/ADR-RES ovarian.
Test [10] has as its system SNB-19 CNS.

SMILES strings stand for the structures.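 Tested at 5 concentrations; 48 h exposure; 96-well plates; endpoints linearly interpolated, else capped at highest concentration. GI50 = concentration required for 50% inhibition of growth. TGI is the concentration that stops growth completely.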

Take `O=C(CCCCCCSc1nc(-c2ccccc2)cc(-c2ccccc2)n1)NO`: the GI50 in test [1] is 1.51 µM; in [2] it was 0.813 µM; in [3] it was 2.25 µM; in test [4] it was 2.7 µM; in test [5], 0.42 µM; in [6] it was 3.16 µM. Moreover, the GI50 in [7] is 1.07 µM; in test [8], 1.35 µM; in test [9] it was 0.699 µM; in test [10], 2.69 µM. The TGI in test [1] is 4.08 µM; in test [2], 10.7 µM; in test [3], 10.3 µM; in [4], 7.42 µM; in test [5], 3.3 µM; in [6], 18.4 µM. For the same compound, the TGI in test [7] stood at 7.72 µM; in [8] it was 3.85 µM; in test [9], 6.15 µM; in [10], 11.3 µM.

For the compound `NC1=C(Br)C(=O)c2ncccc2C1=O`, the TGI in test [1] is 0.671 µM; in test [2] it was 0.807 µM; in [3], 2.62 µM; in test [4], 1.92 µM; in test [5], 4.83 µM; in test [6], 2.57 µM. Further, the TGI in [7] was 0.766 µM; in test [8], 0.713 µM; in test [9], 6.12 µM; in [10], 2.41 µM. Further, the figures for the GI50 in test [6] and in [9] were 1.16 µM and 0.987 µM, respectively.

Regarding `COc1ccc(C(=O)/C=C/c2c(C(F)(F)F)nc3sccn23)cc1OC`, the GI50 in test [1] is 1.87 µM; in [2] it was 1.4 µM; in test [3], 3.15 µM; in [4], 3.44 µM; in test [5], 2.22 µM; in [6] it was 3.25 µM. For the same compound, the GI50 in [7] is 2.91 µM; in test [8], 4.85 µM; in test [9], 1.88 µM; in test [10], 4.25 µM. The TGI in test [1] was greater than 100 µM; in test [2] it was 68.7 µM; in test [3], greater than 100 µM; in test [4] it was greater than 100 µM; in test [5] it was greater than 100 µM; in test [6] it was greater than 100 µM. The TGI in test [7] was 80.7 µM; in [8] it was greater than 100 µM; in test [9] it was 10.6 µM; in test [10], greater than 100 µM.

Take `O=Cc1cn(Cc2cccc(Cl)c2)c2ccccc12`: the GI50 in [1] is 9.61 µM; in test [2] it was 2.39 µM; in test [3] it was 0.263 µM; in [4] it was 11.7 µM; in test [5] it was 6.69 µM; in [6] it was 5.25 µM. Further, the GI50 in [7] was 20.3 µM; in test [8], 0.533 µM; in [9], 7.99 µM; in [10], 12.9 µM. The TGI is 21.8 µM in [1]; 16 µM in test [2]; 14.7 µM in test [3]; 26.3 µM in test [4]; 31.8 µM in test [5]; 18.6 µM in test [6]. Also, the TGI is 45.7 µM in test [7], 6.45 µM in [8], 28.2 µM in test [9] and 27.3 µM in [10].

Consider `O=C1/C(=C/c2ccc([N+](=O)[O-])o2)Oc2ccc(Br)cc21`, for which the GI50 was 14.9 µM in [1]; 1.9 µM in test [2]; 1.94 µM in test [3]; 2.04 µM in [4]; 3.07 µM in test [5]; 1.87 µM in test [6]. Further, the GI50 in test [7] was 1.88 µM; in test [8], 1.84 µM; in test [9], 10.9 µM; in test [10] it was 16.1 µM. Besides, the TGI in test [1] is 28.7 µM; in test [2], 3.46 µM; in test [3], 4.1 µM; in [4], 4.16 µM; in [5] it was 9.4 µM; in test [6], 3.5 µM. The TGI in [7] came out at 3.35 µM; in test [8], 4.09 µM; in test [9] it was 42 µM; in test [10], 30 µM.

On to `NC(=O)c1cc([N+](=O)[O-])c(Cl)c([N+](=O)[O-])c1`, for which the GI50 is 2.31 µM in test [1]; 1.91 µM in test [2]; 3.01 µM in [3]; 4.66 µM in test [4]; 2.62 µM in [5]; 2.52 µM in test [6]. For the same compound, the GI50 in [7] was 1.94 µM; in test [8] it was 2.43 µM; in test [9], 3.67 µM; in test [10], 15.3 µM. Further, the TGI amounted to 5.61 µM in test [1]; 3.53 µM in test [2]; 7.9 µM in test [3]; 16.2 µM in test [4]; 5.68 µM in test [5]; 5.56 µM in [6]. The TGI in test [7] amounted to 3.57 µM; in test [8], 7.13 µM; in test [9], 13.9 µM; in test [10] it was 29.5 µM.

Turning to `Cc1nc2sc(C(=O)Nc3cccc4ccccc34)c(N)c2cc1C(=O)/C=C/c1ccccc1`, the GI50 was 0.236 µM in test [1]; 0.174 µM in test [2]; 0.301 µM in [3]; 1.15 µM in test [4]; 0.251 µM in test [5]; 0.413 µM in [6]. For the same compound, the GI50 in test [7] was 0.215 µM; in test [8], 0.235 µM; in test [9] it was 0.173 µM; in [10], 0.534 µM. The TGI in [1] was 1.01 µM; in test [2], 0.631 µM; in test [3] it was 1.3 µM; in test [4] it was greater than 32.4 µM; in test [5] it was greater than 28.4 µM; in test [6], 1.92 µM. Further, the TGI in test [7] was 2.11 µM; in test [8], 3.8 µM; in test [9] it was 0.593 µM; in test [10], greater than 17 µM.

Turning to `CC(C)[C@@]12C[C@@H](OC(=O)COC(=O)/C=C/c3ccccc3)[C@@](C)(O1)[C@@H]1CC[C@@H](C)[C@H]1[C@@H]2OC(=O)/C=C/c1ccccc1`, the GI50 in [1] is greater than 100 µM; in test [2], greater than 100 µM; in [3] it was greater than 100 µM; in [5], greater than 100 µM; in test [6] it was 0.508 µM; in test [7], greater than 100 µM. Moreover, the GI50 in test [8] was greater than 100 µM; in [9] it was 0.569 µM; in test [10] it was greater than 100 µM. Also, the TGI in [1], in [2], in test [3], in [4], in test [5] and in test [6] was greater than 100 µM in each case. The TGI in test [7], in test [8], in test [9] and in test [10] was greater than 100 µM throughout.

With `CCc1ccccc1N1CCN(C(=O)c2cc(OC)c(OC)c(OC)c2)CC1`, the TGI in [1] is 4.14 µM; in [2], 16.5 µM; in [3] it was greater than 51.4 µM; in [4] it was greater than 100 µM; in test [5] it was 41.4 µM; in test [6], 5.87 µM. For the same compound, the TGI in [7] is 0.029 µM; in test [8], greater than 68.8 µM; in [9] it was 1.63 µM; in test [10], greater than 56 µM.

On to `Cn1c(=O)c(Oc2ccc(F)cc2F)cc2cnc(NC(CO)CO)nc21`, for which the GI50 in test [1], in [2], in [3], in test [4], in test [5] and in test [6] was greater than 25 µM each time. Further, the GI50 in [7], in test [8], in test [9] and in [10] was greater than 25 µM in each case. In addition, the TGI in [1], in [2], in [3], in test [4], in [5] and in [6] was greater than 25 µM in each case. Also, the TGI in [7], in [8], in [9] and in [10] was greater than 25 µM each time.

Take `O=C1Nc2ccccc2C1Cc1ccc([N+](=O)[O-])cc1` (stereo unspecified): the TGI in [1], in test [2], in test [3], in test [4], in test [5] and in test [6] was greater than 100 µM throughout. Besides, the TGI in [7], in test [8], in [9] and in [10] was greater than 100 µM each time.

With `Cc1nc2cnc3cc(F)c(-c4ccc(Oc5ncccn5)cc4Cl)cc3c2n1[C@H]1CCN(C(=O)CO)C[C@@H]1F`, the GI50 in [1] was 5.91 µM; in [2] it was 0.255 µM; in test [3] it was 0.936 µM; in [4], 6.12 µM; in test [5], 0.792 µM; in [6] it was 7.51 µM. Besides, the GI50 in [7] was 7.17 µM; in [8], 0.0134 µM; in test [9] it was 8.38 µM; in test [10], 4.89 µM. Moreover, the TGI is greater than 100 µM in [1]; 15.4 µM in test [2]; greater than 100 µM in [3]; greater than 100 µM in test [4]; 30 µM in test [5]; 23.1 µM in test [6]. Besides, the TGI is 32.7 µM in [7], 0.0875 µM in [8], 49 µM in test [9] and greater than 100 µM in test [10].

`O=C(/C=C/c1cccs1)c1ccc(Nc2nc(Nc3ccc(F)cc3)nc(Nc3ccc(F)cc3)n2)cc1`: the GI50 was 18.3 µM in [1]; 23.6 µM in test [2]; 18 µM in test [3]; 30.2 µM in test [4]; 29.1 µM in [5]; 16.7 µM in [6]. The GI50 is 20.5 µM in test [7], greater than 100 µM in test [8], 31.3 µM in [9] and 34.1 µM in [10]. Further, the TGI in [1] was 35.4 µM; in [2], greater than 100 µM; in [3] it was 41 µM; in [4], greater than 100 µM; in test [5], greater than 100 µM; in [6] it was 32.4 µM. For the same compound, the TGI in test [7] is 46.4 µM; in test [8] it was greater than 100 µM; in test [9] it was greater than 100 µM; in [10], greater than 100 µM.

For `CCc1cccc2c3c(sc12)C(c1ccc(Cl)cc1)C(C#N)=C(N)O3` (stereo unspecified), the GI50 in test [1] is 0.496 µM; in test [2] it was 0.408 µM; in test [3], 0.53 µM; in [4], 0.933 µM; in test [5] it was 0.59 µM; in [6] it was 0.983 µM. Moreover, the GI50 was 0.338 µM in test [7], 0.351 µM in test [8], 0.349 µM in test [9] and 0.499 µM in test [10]. Besides, the TGI came out at 5.26 µM in test [1]; 9.59 µM in test [2]; 11.1 µM in test [3]; 22.2 µM in test [4]; 27.6 µM in test [5]; 15.6 µM in test [6]. The TGI in [7] is 4.39 µM; in test [8], 5.27 µM; in test [9], 2.24 µM; in test [10], 12.1 µM.

With `Nc1ncnc2c1ncn2CC(O)C(=O)O` (stereo unspecified), the TGI in test [1], in [2], in [3], in [4], in test [5] and in [6] was greater than 100 µM in each case. Besides, the TGI in test [7], in [8], in test [9] and in [10] was greater than 100 µM in each case.

Take `N#Cc1cccc(C(=O)Nc2cccc(NC(=O)c3cccc(C#N)c3)c2)c1`: the GI50 in test [1] is 69.3 µM; in [2], 78.1 µM; in [3], greater than 100 µM; in test [4], 17 µM; in test [5] it was 86.5 µM; in test [6], greater than 100 µM. In addition, the GI50 is greater than 100 µM in [7], 34.1 µM in test [8], 95.7 µM in [9] and greater than 100 µM in test [10]. The TGI in test [1] is greater than 100 µM; in test [2], greater than 100 µM; in [3] it was greater than 100 µM; in test [4], 56 µM; in test [5], greater than 100 µM; in test [6], greater than 100 µM. Besides, the TGI in test [7], in test [8], in test [9] and in test [10] was greater than 100 µM each time.
